Laboratory results taken from US11878965B2, “Inhibitors of peptidylarginine deiminases” (Gilead Sciences, Inc., priority 2020, dated 2024).

What follows are compounds tested against human PAD4 (Homo sapiens (Human), UniProt Q9UM07) (assay: In Vitro PAD4 BAEE Biochemical Assay). Settings: human PAD4, BAEE substrate; 5 nM PAD4, 2 mM calcium chloride, 3 mM BAEE; geometric mean of multiple experiments.
Outline: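 Deimination of BAEE substrate (3 mM) measured as ammonia via o-phthalaldehyde–DTT isoindole fluorescence, 405/535 nm. Tag-free bacterially expressed human PAD4 at 5 nM with 2 mM calcium chloride, pH 7.6 MOPS buffer, 30 min compound preincubation then 2 h reaction, both at 25 °C.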

human PAD4, sequence (Q9UM07 2-663): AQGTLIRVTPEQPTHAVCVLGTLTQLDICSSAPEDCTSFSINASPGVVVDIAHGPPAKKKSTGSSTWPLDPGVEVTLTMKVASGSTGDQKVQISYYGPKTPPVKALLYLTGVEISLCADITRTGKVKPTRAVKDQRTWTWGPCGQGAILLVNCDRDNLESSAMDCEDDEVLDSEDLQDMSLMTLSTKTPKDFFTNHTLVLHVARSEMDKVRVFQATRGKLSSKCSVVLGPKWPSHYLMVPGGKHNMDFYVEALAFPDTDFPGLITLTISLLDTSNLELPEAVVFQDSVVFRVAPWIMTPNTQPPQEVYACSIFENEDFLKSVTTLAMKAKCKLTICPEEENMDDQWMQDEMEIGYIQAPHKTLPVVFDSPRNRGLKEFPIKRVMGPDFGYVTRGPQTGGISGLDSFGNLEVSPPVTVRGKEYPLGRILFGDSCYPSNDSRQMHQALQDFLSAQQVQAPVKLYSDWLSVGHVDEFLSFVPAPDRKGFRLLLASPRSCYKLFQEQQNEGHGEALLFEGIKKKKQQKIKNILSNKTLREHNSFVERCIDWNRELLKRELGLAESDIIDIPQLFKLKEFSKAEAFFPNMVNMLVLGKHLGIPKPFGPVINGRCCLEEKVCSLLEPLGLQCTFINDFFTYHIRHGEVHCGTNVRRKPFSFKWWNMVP

Row | IC50 [nM] | Structure (SMILES)
1 | 54.6 | COc1cc(C(=O)N2CCC[C@@H](N)C2)cc2nc(-c3cc4ccc([C@@H](C)NC(=O)c5ccccc5)nc4n3CC3CC3)n(C)c12 [Example 124, N-((R)-1-(2-(5-((R)-3-aminopiperidine-1-carbonyl)-7-methoxy-1-methyl-1H-benzo[d]imidazol-2-yl)-1-(cyclopropylmethyl)-1H-pyrrolo[2,3-b]pyridin-6-yl)ethyl)benzamide]
2 | 90.8 | COc1cc(C(=O)N2CCC[C@@H](N)C2)cc2nc(-c3cc4ccc([C@@H](C)NC(=O)c5ccccc5)nc4n3CC3CC3)n(C3CC3)c12 [Example 126, N-((R)-1-(2-(5-((R)-3-aminopiperidine-1-carbonyl)-1-cyclopropyl-7-methoxy-1H-benzo[d]imidazol-2-yl)-1-(cyclopropylmethyl)-1H-pyrrolo[2,3-b]pyridin-6-yl)ethyl)benzamide]
3 | 249 | CCCCS(=O)(=O)N(C)c1ccc2cc(-c3nc4cc(C(=O)N5CCC[C@@H](N)C5)cc(OC)c4n3C)n(CC3CC3)c2n1 [Example 14, (R)-N-(2-(5-(3-aminopiperidine-1-carbonyl)-7-methoxy-1-methyl-1H-benzo[d]imidazol-2-yl)-1-(cyclopropylmethyl)-1H-pyrrolo [2,3-b]pyridin-6-yl)-N-methylbutane-1-sulfonamide]
4 | 50000 | COc1cc(C(=O)N2CC[C@@H]3OCCN[C@@H]3C2)cc2nc(-c3cc4ccc(N(C(F)F)S(C)(=O)=O)nc4n3CC3CC3)n(C3CC3)c12 [Example 69, N-(2-(1-cyclopropyl-7-methoxy-5-((4aR,8aS)-octahydro-2H-pyrido[4,3-b][1,4]oxazine-6-carbonyl)-1H-benzo[d]imidazol-2-yl)-1-(cyclopropylmethyl)-1H-pyrrolo[2,3-b]pyridin-6-yl)-N-(difluoromethyl) methanesulfonamide]
5 | 76.2 | COc1cc(C(=O)N2C[C@H](N)CCN2C)cc2nc(-c3cc4ccc([C@@H](C)NC(=O)Cc5ccccc5)nc4n3CC3CC3)n(C)c12 [Example 158, N-((R)-1-(2-(5-((R)-5-amino-2-methylhexahydropyridazine-1-carbonyl)-7-methoxy-1-methyl-1H-benzo[d]imidazol-2-yl)-1-(cyclopropylmethyl)-1H-pyrrolo[2,3-b]pyridin-6-yl)ethyl)-2-phenylacetamide]
6 | 509 | COC(=O)N(c1ccc2cc(-c3nc4cc(C(=O)N5CCC[C@@H](N)C5)cc(OC)c4n3C)n(CC3CC3)c2n1)C1CCC1 [Example 110, (R)-methyl (2-(5-(3-aminopiperidine-1-carbonyl)-7-methoxy-1-methyl-1H-benzo[d]imidazol-2-yl)-1-(cyclopropylmethyl)-1H-pyrrolo[2,3-b]pyridin-6-yl) (cyclobutyl)carbamate]
7 | 72.3 | COc1cc(C(=O)N2C[C@H](N)CCN2C)cc2nc(-c3cc4ccc([C@@H](C)NC(=O)C(C)(C)C)nc4n3CC3CC3)n(C)c12 [Example 161, N-((R)-1-(2-(5-((R)-5-amino-2-methylhexahydropyridazine-1-carbonyl)-7-methoxy-1-methyl-1H-benzo[d]imidazol-2-yl)-1-(cyclopropylmethyl)-1H-pyrrolo[2,3-b]pyridin-6-yl)ethyl)pivalamide]
8 | 198 | COc1cc(C(=O)N2C[C@H](N)CCN2C)cc2nc(-c3cc4ccc([C@@H](C)NC(=O)c5nc(C)cc(C(F)(F)F)n5)nc4n3CC3CC3)n(C)c12 [Example 183, N-((R)-1-(2-(5-((R)-5-amino-2-methylhexahydropyridazine-1-carbonyl)-7-methoxy-1-methyl-1H-benzo[d]imidazol-2-yl)-1-(cyclopropylmethyl)-1H-pyrrolo[2,3-b]pyridin-6-yl)ethyl)-4-methyl-6-(trifluoromethyl)pyrimidine-2-carboxamide]
9 | 235 | CCN(c1ccc2cc(-c3nc4cc(C(=O)N5CCC[C@@H](N)[C@H]5C)cc(OC)c4n3CC3COC3)n(CC3CC3)c2n1)S(C)(=O)=O [Example 37, N-(2-(5-((2R,3R)-3-amino-2-methylpiperidine-1-carbonyl)-7-methoxy-1-(oxetan-3-ylmethyl)-1H-benzo[d]imidazol-2-yl)-1-(cyclopropylmethyl)-1H-pyrrolo [2,3-b]pyridin-6-yl)-N-ethylmethanesulfonamide]
10 | 192 | COc1cc(C(=O)N2CCC[C@@H](N)C2)cc2nc(-c3cc4ccc(N(Cc5ccccc5)S(C)(=O)=O)nc4n3CC3CC3)n(C)c12 [Example 11, (R)-N-(2-(5-(3-aminopiperidine-1-carbonyl)-7-methoxy-1-methyl-1H-benzo[d]imidazol-2-yl)-1-(cyclopropylmethyl)-1H-pyrrolo [2,3-b]pyridin-6-yl)-N-benzylmethanesulfonamide]
11 | 797 | COc1cc(C(=O)N2CCC[C@@H](N)C2)cc2nc(-c3cc4ccc(S(C)(=O)=O)nc4n3CC3CC3)n(C)c12 [Example 253, (R)-(3-aminopiperidin-1-yl)(2-(1-(cyclopropylmethyl)-6-(methylsulfonyl)-1H-pyrrolo[2,3-b]pyridin-2-yl)-7-methoxy-1-methyl-1H-benzo[d]imidazol-5-yl)methanone]
12 | 196 | CCN(C(=O)OC)c1ccc2cc(-c3nc4cc(C(=O)N5CCC[C@@H](N)C5)ccc4n3C3CC3)n(CC3CC3)c2n1 [Example 113, (R)-methyl (2-(5-(3-aminopiperidine-1-carbonyl)-1-cyclopropyl-1H-benzo[d]imidazol-2-yl)-1-(cyclopropylmethyl)-1H-pyrrolo[2,3-b]pyridin-6-yl)(ethyl)carbamate]

Row | Structure (SMILES) | IC50 [nM]
13 | COc1cc(C(=O)N2[C@H]3CC[C@@H]2[C@H](N)C3)cc2nc(-c3cc4ccc([C@@H](C)NC(=O)C5CC5(F)F)cc4n3CC3CC3)n(C3CC3)c12 (stereo partly drawn) [Example 152, N-((R)-1-(2-(5-((1R,2R,4S)-2-amino-7-azabicyclo[2.2.1]heptane-7-carbonyl)-1-cyclopropyl-7-methoxy-1H-benzo[d]imidazol-2-yl)-1-(cyclopropylmethyl)-1H-indol-6-yl)ethyl)-2,2-difluorocyclopropane-1-carboxamide] | 63

Same assay, conditions: recombinant PAD4 5 nM, 2 mM calcium chloride, 3 mM BAEE substrate; geometric mean of multiple experiments

Row | IC50 [nM] | Structure (SMILES)
14 | 58 | COc1cc(C(=O)N2C[C@H](N)[C@@H]3CC[C@H]2C3)cc2nc(-c3cc4ccc([C@@H](C)NC(=O)c5cnn(C6CC6)c5)nc4n3CC3CC3)n(C)c12 [Example 319, N-((R)-1-(2-(5-((1S,4R,5R)-4-amino-2-azabicyclo[3.2.1]octane-2-carbonyl)-7-methoxy-1-methyl-1H-benzo[d]imidazol-2-yl)-1-(cyclopropylmethyl)-1H-pyrrolo[2,3-b]pyridin-6-yl)ethyl)-1-cyclopropyl-1H-pyrazole-4-carboxamide]
15 | 113 | COc1cc(C(=O)N2C[C@H](N)[C@@H]3CC[C@H]2C3)cc2nc(-c3cc4ccc([C@@H](C)NC(=O)c5ccc(C(F)(F)F)nc5)nc4n3CC3CC3)n(C)c12 [Example 313, N-((R)-1-(2-(5-((1S,4R,5R)-4-amino-2-azabicyclo[3.2.1]octane-2-carbonyl)-7-methoxy-1-methyl-1H-benzo[d]imidazol-2-yl)-1-(cyclopropylmethyl)-1H-pyrrolo[2,3-b]pyridin-6-yl)ethyl)-6-(trifluoromethyl)nicotinamide]
16 | 78.6 | C[C@@H](NC(=O)C12CC(F)(C1)C2)c1ccc2cc(-c3nc4cc(C(=O)N5C[C@H](N)[C@@H]6CC[C@H]5C6)cc(F)c4n3C3CC3)n(CC3CC3)c2n1 [Example 219, N-((R)-1-(2-(5-((1S,4R,5R)-4-amino-2-azabicyclo[3.2.1]octane-2-carbonyl)-1-cyclopropyl-7-fluoro-1H-benzo[d]imidazol-2-yl)-1-(cyclopropylmethyl)-1H-pyrrolo[2,3-b]pyridin-6-yl)ethyl)-3-fluorobicyclo[1.1.1]pentane-1-carboxamide]
17 | 71 | COc1cc(C(=O)N2C[C@H](N)[C@@H]3CC[C@H]2C3)cc2nc(-c3cc4ccc([C@@H](C)NC(=O)[C@]5(C)CC5(F)F)nc4n3CC3CC3)n(C)c12 [Example 331, (S)-N-((R)-1-(2-(5-((1S,4R,5R)-4-amino-2-azabicyclo[3.2.1]octane-2-carbonyl)-7-methoxy-1-methyl-1H-benzo[d]imidazol-2-yl)-1-(cyclopropylmethyl)-1H-pyrrolo[2,3-b]pyridin-6-yl)ethyl)-2,2-difluoro-1-methylcyclopropane-1-carboxamide]
18 | 84.1 | C[C@@H](NC(=O)C1(C#N)CC1)c1ccc2cc(-c3nc4cc(C(=O)N5C[C@H](N)[C@@H]6CC[C@H]5C6)cc(F)c4n3C3CC3)n(CC3CC3)c2n1 [Example 303, N-((R)-1-(2-(5-((1S,4R,5R)-4-amino-2-azabicyclo[3.2.1]octane-2-carbonyl)-1-cyclopropyl-7-fluoro-1H-benzo[d]imidazol-2-yl)-1-(cyclopropylmethyl)-1H-pyrrolo[2,3-b]pyridin-6-yl)ethyl)-1-cyanocyclopropane-1-carboxamide]
19 | 128 | COc1cc(C(=O)N2C[C@H](N)[C@@H]3CC[C@H]2C3)cc2nc(-c3cc4ccc([C@@H](C)NC(=O)c5ccccc5C(F)(F)F)nc4n3CC3CC3)n(C)c12 [Example 292, N-((R)-1-(2-(5-((1S,4R,5R)-4-amino-2-azabicyclo [3.2.1]octane-2-carbonyl)-7-methoxy-1-methyl-1H-benzo [d]imidazol-2-yl)-1-(cyclopropylmethyl)-1H-pyrrolo[2,3-b]pyridin-6-yl)ethyl)-2-(trifluoromethyl) benzamide]
20 | 55.9 | COc1cc(C(=O)N2C[C@H](N)[C@@H]3CC[C@H]2C3)cc2nc(-c3cc4ccc([C@@H](C)NC(=O)[C@H]5CC5(F)F)nc4n3CC3CC3)n(C)c12 [Example 312, (R)-N-((R)-1-(2-(5-((1S,4R,5R)-4-amino-2-azabicyclo[3.2.1]octane-2-carbonyl)-7-methoxy-1-methyl-1H-benzo[d]imidazol-2-yl)-1-(cyclopropylmethyl)-1H-pyrrolo[2,3-b]pyridin-6-yl)ethyl)-2,2-difluorocyclopropane-1-carboxamide]
